In US10194663B2, “Chemical stabilization of iodosulfuron-methyl sodium salt by hydroxystearates” (BAYER CROPSCIENCE AG, priority 2012, dated 2019):

Test: Storage stability: degradation of IMS in OD formulations, determined by HPLC
Format: physicochemical
Details: for Degradation of IMS after 1 week at 54° C. / Degradation of IMS after 4 weeks at 40° C. / Degradation of IMS after 8 weeks at 40° C. / Degradation of IMS after 12 weeks at 35° C. / Degradation of IMS after 2 weeks at 54° C. / Degradation of IMS after 8 weeks at 40° C0: Emulsogen EL 400 10%
Text: The sodium salt of iodosulfuron-methyl (iodosulfuron-methyl-sodium, IMS) is finely dispersed by means of a rotor-stator mixer together with a customary emulsifier such as Emulsogen EL 400® (castor oil polyglycol ether from Clariant AG) in the solvents customary for OD formulations (oil dispersion formulations), such as rapeseed oil methyl ester or Solvesso 200 ND® (aromatics mixture from Exxon AG). Further formulation auxiliaries such as the thickener Bentone 38® (sheet silicate from Elementis AG) or the polymers Ligalub PEG 400 MO® (polyethylene glycol monooleate from Peter Greven GmbH), Ligalub 12 GE® (glyceryl dioleate from Peter Greven GmbH) or Ligalub 71 KE® (complex ester from Peter Greven GmbH) can, inter alia, also be added to the system. Furthermore, lithium hydroxystearate (lithium soap of a 12-hydroxystearic acid) was also additionally added for comparison purposes to each mixture.
Tables 1 to 9 show the compositions of the tested OD formulations (% data in % by weight).
The degradation of the IMS is determined here by means of HPLC.
The degradation is expressed here in tables 1 to 9 in—xx %. This means that after the relevant period xx % of the originally present IMS was already degraded.

[1] = Table 1 OD formulation: IMS 0.5%, Lithium hydroxystearate 0%, Bentone 38 1.2%, Rapeseed oil methyl ester 88.3%
[2] = Table 1 OD formulation: IMS 0.5%, Lithium hydroxystearate 1%, Bentone 38 1.2%, Rapeseed oil methyl ester 87.3%
[3] = Table 2 OD formulation: IMS 0.5%, Lithium hydroxystearate 0%, Solvesso 200 ND 89.5%
[4] = Table 2 OD formulation: IMS 0.5%, Lithium hydroxystearate 0.5%, Solvesso 200 ND 89%
[5] = Table 2 OD formulation: IMS 0.5%, Lithium hydroxystearate 1%, Solvesso 200 ND 88.5%
[6] = Table 2 OD formulation: IMS 0.5%, Lithium hydroxystearate 5%, Solvesso 200 ND 84.5%
[7] = Table 3 OD formulation: IMS 2%, Lithium hydroxystearate 0%, Solvesso 200 ND 88%
[8] = Table 3 OD formulation: IMS 2%, Lithium hydroxystearate 1%, Solvesso 200 ND 87%
[9] = Table 4 OD formulation: IMS 0.5%, Lithium hydroxystearate 0%, Ligalub PEG 400 MO 15%, Solvesso 200 ND 74.5%
[10] = Table 4 OD formulation: IMS 0.5%, Lithium hydroxystearate 1%, Ligalub PEG 400 MO 15%, Solvesso 200 ND 73.5%
[11] = Table 5 OD formulation: IMS 0.5%, Lithium hydroxystearate 0%, Ligalub PEG 400 MO 30%, Bentone 38 1.2%, Rapeseed oil methyl ester 58.3%
[12] = Table 5 OD formulation: IMS 0.5%, Lithium hydroxystearate 1%, Ligalub PEG 400 MO 30%, Bentone 38 1.2%, Rapeseed oil methyl ester 57.3%
[13] = Table 6 OD formulation: IMS 2%, Lithium hydroxystearate 0%, Ligalub PEG 400 MO 15%, Solvesso 200 ND 73%
[14] = Table 6 OD formulation: IMS 2%, Lithium hydroxystearate 1%, Ligalub PEG 400 MO 15%, Solvesso 200 ND 72%
[15] = Table 7 OD formulation: IMS 0.5%, Lithium hydroxystearate 0%, Ligalub 12 GE 30%, Bentone 38 1.2%, Rapeseed oil methyl ester 58.3%
[16] = Table 7 OD formulation: IMS 0.5%, Lithium hydroxystearate 1%, Ligalub 12 GE 30%, Bentone 38 1.2%, Rapeseed oil methyl ester 57.3%
[17] = Table 8 OD formulation: IMS 0.5%, Lithium hydroxystearate 0%, Ligalub 71 KE 15%, Solvesso 200 ND 74.5%
[18] = Table 8 OD formulation: IMS 0.5%, Lithium hydroxystearate 1%, Ligalub 71 KE 15%, Solvesso 200 ND 73.5%
[19] = Table 9 OD formulation: IMS 0.5%, Lithium hydroxystearate 0%, Ligalub 71 KE 30%, Bentone 38 1.2%, Rapeseed oil methyl ester 58.3%
[20] = Table 9 OD formulation: IMS 0.5%, Lithium hydroxystearate 1%, Ligalub 71 KE 30%, Bentone 38 1.2%, Rapeseed oil methyl ester 57.3%

Question: With `COC(=O)c1ccc(I)cc1S(=O)(=O)[N-]C(=O)Nc1nc(C)nc(OC)n1.[Na+]` [IMS, iodosulfuron-methyl sodium salt] as the molecule, how does the “Degradation of IMS after 1 week at 54° C.” value [1] read?
Answer: −78.3%

Question: What about the “Degradation of IMS after 4 weeks at 40° C.” value [1] of the same molecule?
Answer: −46.4%

Question: What about the “Degradation of IMS after 8 weeks at 40° C.” value [1] of the same molecule?
Answer: −69.7%

Question: What about the “Degradation of IMS after 12 weeks at 35° C.” value (shortened to “Degradation of IMS … at 35° C.”) [1] of the same molecule?
Answer: −57.8%

Question: What about the “Degradation of IMS after 1 week at 54° C.” value [2] of the same molecule?
Answer: −23.9%

Question: What about the “Degradation of IMS after 4 weeks at 40° C.” value [2] of the same molecule?
Answer: −5%

Question: What about the “Degradation of IMS after 8 weeks at 40° C.” value [2] of the same molecule?
Answer: −8.7%

Question: And the “Degradation of IMS … at 35° C.” value [2]?
Answer: −6.3%

Question: And the “Degradation of IMS after 2 weeks at 54° C.” value [3]?
Answer: −87.9%

Question: And the “Degradation of IMS after 4 weeks at 40° C.” value [3]?
Answer: −29.9%

Question: What about the “Degradation of IMS after 2 weeks at 54° C.” value [4] of the same molecule?
Answer: −32.2%

Question: And the “Degradation of IMS after 4 weeks at 40° C.” value [4]?
Answer: −7.4%

Question: What about the “Degradation of IMS after 2 weeks at 54° C.” value [5] of the same molecule?
Answer: −28%

Question: What about the “Degradation of IMS after 4 weeks at 40° C.” value [5] of the same molecule?
Answer: −3.4%

Question: And the “Degradation of IMS after 2 weeks at 54° C.” value [6]?
Answer: −14.7%

Question: And the “Degradation of IMS after 4 weeks at 40° C.” value [6]?
Answer: −3.6%

Question: What about the “Degradation of IMS after 2 weeks at 54° C.” value [7] of the same molecule?
Answer: −34.6%

Question: And the “Degradation of IMS after 4 weeks at 40° C.” value [7]?
Answer: −5.2%

Question: What about the “Degradation of IMS after 2 weeks at 54° C.” value [8] of the same molecule?
Answer: −13.1%

Question: And the “Degradation of IMS after 4 weeks at 40° C.” value [8]?
Answer: −0.2%

Question: And the “Degradation of IMS after 2 weeks at 54° C.” value [9]?
Answer: −93.2%

Question: And the “Degradation of IMS after 4 weeks at 40° C.” value [9]?
Answer: −34.9%

Question: What about the “Degradation of IMS after 2 weeks at 54° C.” value [10] of the same molecule?
Answer: −37.8%

Question: And the “Degradation of IMS after 4 weeks at 40° C.” value [10]?
Answer: −7.2%

Question: What about the “Degradation of IMS after 2 weeks at 54° C.” value [11] of the same molecule?
Answer: −87.4%

Question: And the “Degradation of IMS after 4 weeks at 40° C.” value [11]?
Answer: −51.6%

Question: What about the “Degradation of IMS after 8 weeks at 40° C0” value [11] of the same molecule?
Answer: −77.2%

Question: And the “Degradation of IMS … at 35° C.” value [11]?
Answer: −66.8%

Question: What about the “Degradation of IMS after 2 weeks at 54° C.” value [12] of the same molecule?
Answer: −45.8%

Question: And the “Degradation of IMS after 4 weeks at 40° C.” value [12]?
Answer: −14.8%

Question: And the “Degradation of IMS after 8 weeks at 40° C0” value [12]?
Answer: −21%

Question: And the “Degradation of IMS … at 35° C.” value [12]?
Answer: −13.6%

Question: And the “Degradation of IMS after 2 weeks at 54° C.” value [13]?
Answer: −81.8%

Question: What about the “Degradation of IMS after 4 weeks at 40° C.” value [13] of the same molecule?
Answer: −32.9%

Question: What about the “Degradation of IMS after 2 weeks at 54° C.” value [14] of the same molecule?
Answer: −32.7%

Question: And the “Degradation of IMS after 4 weeks at 40° C.” value [14]?
Answer: −3.2%

Question: And the “Degradation of IMS after 1 week at 54° C.” value [15]?
Answer: −42.4%

Question: And the “Degradation of IMS after 4 weeks at 40° C.” value [15]?
Answer: −76.6%

Question: And the “Degradation of IMS after 8 weeks at 40° C.” value [15]?
Answer: −65.9%

Question: And the “Degradation of IMS … at 35° C.” value [15]?
Answer: −55.7%

Question: What about the “Degradation of IMS after 1 week at 54° C.” value [16] of the same molecule?
Answer: −11.8%

Question: And the “Degradation of IMS after 4 weeks at 40° C.” value [16]?
Answer: −3.6%

Question: And the “Degradation of IMS after 8 weeks at 40° C.” value [16]?
Answer: −4.7%

Question: And the “Degradation of IMS … at 35° C.” value [16]?
Answer: −5.3%

Question: What about the “Degradation of IMS after 2 weeks at 54° C.” value [17] of the same molecule?
Answer: −66.6%

Question: What about the “Degradation of IMS after 4 weeks at 40° C.” value [17] of the same molecule?
Answer: −65%

Question: And the “Degradation of IMS after 2 weeks at 54° C.” value [18]?
Answer: −9.86%

Question: What about the “Degradation of IMS after 4 weeks at 40° C.” value [18] of the same molecule?
Answer: −5.6%

Question: What about the “Degradation of IMS after 1 week at 54° C.” value [19] of the same molecule?
Answer: −75.8%

Question: What about the “Degradation of IMS after 4 weeks at 40° C.” value [19] of the same molecule?
Answer: −39.6%

Question: What about the “Degradation of IMS after 8 weeks at 40° C.” value [19] of the same molecule?
Answer: −63.6%

Question: And the “Degradation of IMS … at 35° C.” value [19]?
Answer: −54.6%

Question: And the “Degradation of IMS after 1 week at 54° C.” value [20]?
Answer: −11.4%

Question: What about the “Degradation of IMS after 4 weeks at 40° C.” value [20] of the same molecule?
Answer: −2.3%

Question: What about the “Degradation of IMS after 8 weeks at 40° C.” value [20] of the same molecule?
Answer: −3%

Question: And the “Degradation of IMS … at 35° C.” value [20]?
Answer: −3%

Question: With `CCCCCCC(O)CCCCCCCCCCC(=O)[O-].[Li+]` (stereo not drawn) [lithium hydroxystearate] as the molecule, how does the “stabilizing effect on the sodium salt of iodosulfuron” value (hydroxystearate as thickener in oil-based liquid formulations of iodosulfuron-methyl sodium salt) read?
Answer: particularly significantly stabilizing effect
